Patent US20100120762A1, “Triazine derivatives as inhibitors of phosphodiesterases” (WYETH, priority 2008, published 2010)

How the values were obtained:
[1] = biological target: T1, PDE2A (NM002599) (Homo sapiens, UniProt O00408); experiment: Inhibition of recombinant PDE2A (expressed in baculovirus/SF21-cells); assay type: biochemical; settings: recombinant PDE2A, 0.5 μM [3H]-cAMP, 1000 nM cGMP, 37° C., 30 minutes, SPA; read-out: PDE2A IC50
T1 construct: made in house; host or cells: baculovirus / SF21 insect cells
Protocol: PDE2A (NM002599) was cloned and the gene was inserted in the baculovirus and the enzyme-protein expressed in SF21-cells. The enzyme was isolated from these cells by harvesting the cells by an centrifugation at 200 g to collect the cells. The cells were resuspended in 50 mM Tris-HCl/5 mM MgCl2 buffer (pH=7.4) (Sigma, Deisenhofen, Germany; Merck, Darmstadt, Germany) and lysed by a sonication of the cells (three times for 15 seconds, Labsonic U, Fa. Braun, Degersheim, Switzerland, level “high”). The membrane fraction of PDE2A was obtained by a centrifugation at 48 000 g for 1 h, resuspended in buffer and stored at −70° C.
PDE2A activity was determined in a one step procedure in microtiterplates. The reaction mixture of 100 μl contained 50 mM Tris-HCl/5 mM MgCl2 buffer (pH=7.4) (Sigma, Deisenhofen, Germany; Merck, Darmstadt, Germany), 0.5 μM [3H]-cAMP (Amersham, Buckinghamshire, UK), 1000 nM cGMP and the enzyme. Non-specific enzyme activity was tested in the absence of cGMP. The reaction was initiated by addition of the substrate solution and was carried out at 37° C. for 30 minutes. Enzymatic activity then was stopped by addition of 25 μl SPA-beads (Amersham-Pharmacia). One hour later the mixture was measured in a liquid scintillation counter for microtiterplates (Microbeta Trilux). For pipetting of the incubation mixture the robot Biomek (Fa. Beckman) was routinely used.
The optimal amount of enzyme in the assay has been determined and optimised for each enzyme preparation separately before using the enzyme in compound testing. For determination of IC50 values the Hill-plot, 2-parameter-model, was used.

[2] = biological target: T2, PDE10A1 (AB 020593) (Homo sapiens, UniProt Q9Y233); experiment: Inhibition of recombinant PDE10A (baculovirus/SF21 system); assay type: biochemical; settings: recombinant cytosolic PDE10A, 0.1 μM [3H]-cAMP, 37° C., 30 minutes, SPA; read-out: PDE10A IC50
T2 construct: made in house; host or cells: baculovirus / SF21 insect cells (gene synthesized by Entelechon GmbH)
Protocol: The DNA of PDE10A1 (AB 020593, 2340 bp) was synthesized and cloned into the vector pCR4.TOPO (Entelechon GmbH, Regensburg, Germany). The gene was than inserted into a baculovirus vector, ligated with the baculovirus DNA. The enzyme-protein was expressed in SF21-cells. The enzyme was isolated from these cells by harvesting the cells by an centrifugation at 500 g to collect the cells.
The cells were resuspended in 50 mM Tris-HCl/1 mM EDTA/250 mM Sucrose buffer, pH=7.4 (Sigma, Deisenhofen, Germany; Merck, Darmstadt, Germany) and lysed by sonification of the cells (three times for 15 seconds, Labsonic U, Fa. Braun, Degersheim, Switzerland, level “high”). The cytosolic PDE10A was obtained by a centrifugation at 48,000 g for 1 h in the supernatant and stored at −70° C.
PDE activity was determined in a one step procedure in microtiter plates. The reaction mixture of 100 μl contained 50 mM Tris-HCl/5 mM MgCl2 buffer (pH=7.4, Sigma, Deisenhofen, Germany; Merck, Darmstadt, Germany) 0.1 μM [3H]-cAMP (Amersham, Buckinghamshire, UK) and the enzyme. Non-specific enzyme activity was determined without the enzyme. The reaction was initiated by addition of the substrate solution and was carried out at 37° C. for 30 minutes. Enzymatic activity then was stopped by addition of 25 μl Ysi-SPA-beads (Amersham-Pharmacia). One h later the mixture was measured in a liquid scintillation counter for microtiter plates (Microbeta Trilux). The Biomek 2000 (Beckman) was used routinely for pipetting of the incubation mixture. The optimal amount of enzyme in the assay has been determined and optimized for each enzyme preparation separately before using the enzyme in compound testing. For determination of IC50 values the Hill-plot, 2-parameter-model, was used.

T1 sequence (O00408 whole entry): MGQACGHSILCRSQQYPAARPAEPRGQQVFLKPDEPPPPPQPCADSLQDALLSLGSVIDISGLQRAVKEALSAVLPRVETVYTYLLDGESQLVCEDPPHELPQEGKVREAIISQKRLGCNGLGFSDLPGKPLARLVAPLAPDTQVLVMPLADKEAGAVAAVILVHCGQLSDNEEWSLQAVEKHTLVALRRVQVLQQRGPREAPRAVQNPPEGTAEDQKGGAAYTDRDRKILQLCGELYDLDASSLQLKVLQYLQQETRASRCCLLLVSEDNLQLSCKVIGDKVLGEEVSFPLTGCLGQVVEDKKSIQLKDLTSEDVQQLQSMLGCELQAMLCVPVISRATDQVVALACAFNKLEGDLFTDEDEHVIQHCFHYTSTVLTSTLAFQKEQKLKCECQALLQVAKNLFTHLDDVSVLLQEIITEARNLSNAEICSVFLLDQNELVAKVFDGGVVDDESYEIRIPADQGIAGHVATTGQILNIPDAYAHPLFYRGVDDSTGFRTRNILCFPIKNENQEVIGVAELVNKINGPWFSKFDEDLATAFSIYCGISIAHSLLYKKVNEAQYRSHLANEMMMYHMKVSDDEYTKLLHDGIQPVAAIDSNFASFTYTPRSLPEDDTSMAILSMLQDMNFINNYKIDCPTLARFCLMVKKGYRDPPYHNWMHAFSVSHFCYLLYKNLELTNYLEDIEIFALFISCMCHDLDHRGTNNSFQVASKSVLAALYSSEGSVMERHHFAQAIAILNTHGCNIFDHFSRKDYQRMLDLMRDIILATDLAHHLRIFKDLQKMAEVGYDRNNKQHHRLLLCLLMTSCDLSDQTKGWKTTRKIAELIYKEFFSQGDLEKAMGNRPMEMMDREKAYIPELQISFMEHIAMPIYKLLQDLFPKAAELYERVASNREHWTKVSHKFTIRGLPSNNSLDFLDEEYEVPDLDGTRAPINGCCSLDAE
T2 sequence (Q9Y233 other isoform, or with tags, fused parts or gaps): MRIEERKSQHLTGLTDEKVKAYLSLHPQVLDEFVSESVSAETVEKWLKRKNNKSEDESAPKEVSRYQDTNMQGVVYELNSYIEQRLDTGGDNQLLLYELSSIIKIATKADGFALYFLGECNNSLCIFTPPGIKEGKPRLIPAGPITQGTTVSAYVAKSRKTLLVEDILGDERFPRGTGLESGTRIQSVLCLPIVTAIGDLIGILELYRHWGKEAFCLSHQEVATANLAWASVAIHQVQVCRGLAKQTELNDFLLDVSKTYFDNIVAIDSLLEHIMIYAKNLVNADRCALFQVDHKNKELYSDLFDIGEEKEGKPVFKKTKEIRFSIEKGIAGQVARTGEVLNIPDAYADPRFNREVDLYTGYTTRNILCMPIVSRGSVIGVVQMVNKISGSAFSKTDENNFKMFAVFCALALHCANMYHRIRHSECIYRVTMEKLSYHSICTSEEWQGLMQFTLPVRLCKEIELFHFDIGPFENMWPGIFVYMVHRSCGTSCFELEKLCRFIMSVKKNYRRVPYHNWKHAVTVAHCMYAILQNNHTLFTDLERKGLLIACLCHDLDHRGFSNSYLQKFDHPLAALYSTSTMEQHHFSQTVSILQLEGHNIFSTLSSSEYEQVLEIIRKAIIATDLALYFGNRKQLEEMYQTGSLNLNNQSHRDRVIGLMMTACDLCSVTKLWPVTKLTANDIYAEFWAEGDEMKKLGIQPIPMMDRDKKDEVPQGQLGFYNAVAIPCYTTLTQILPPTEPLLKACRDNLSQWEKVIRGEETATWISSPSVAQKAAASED

| Compound | IC50 [1] | IC50 [2] |
| --- | --- | --- |
| COc1ccc2nnc3c(C)nc(-c4ccnc(C)c4)n3c2n1 [Example 34, 2-methoxy-7-methyl-9-(2-methylpyridin-4-yl)imidazo[5,1-c]pyrido[2,3-e][1,2,4]triazine] | 421 nM | 270 nM |
| CCc1ccccc1-c1nc(C)c2nnc3ccc(OC)nc3n12 [Example 35, 9-(2-ethylphenyl)-2-methoxy-7-methylimidazo[5,1-c]pyrido[2,3-e][1,2,4]triazine] | 41.6 nM | 59.4 nM |
| CCOc1cccc(-c2nc(C)c3nnc4ccc(OC)nc4n23)c1 [Example 36, 9-(3-ethoxyphenyl)-2-methoxy-7-methylimidazo[5,1-c]pyrido[2,3-e][1,2,4]triazine] | 148 nM | 303 nM |
| COc1ccc2nnc3c(C)nc(-c4cccc(OC)c4OC)n3c2n1 [Example 37, 9-(2,3-dimethoxyphenyl)-2-methoxy-7-methylimidazo[5,1-c]pyrido[2,3-e][1,2,4]triazine] | 274 nM | 146 nM |
| CCOc1cccc(-c2nc(C)c3nnc4ccc(OC)nc4n23)c1F [Example 38, 9-(3-ethoxy-2-fluorophenyl)-2-methoxy-7-methylimidazo[5,1-c]pyrido[2,3-e][1,2,4]triazine] | 243 nM | 617 nM |
| COc1ccc2nnc3c(C)nc(-c4cccc(OC)c4Cl)n3c2n1 [Example 39, 9-(2-chloro-3-methoxyphenyl)-2-methoxy-7-methylimidazo[5,1-c]pyrido[2,3-e][1,2,4]triazine] | 111 nM | 115 nM |
| COc1cncc(-c2nc(C)c3nnc4ccc(OC)nc4n23)c1 [Example 40, 2-methoxy-9-(5-methoxypyridin-3-yl)-7-methylimidazo[5,1-c]pyrido[2,3-e][1,2,4]triazine] | 14 nM | 91.3 nM |
| COc1ccc2nnc3c(C)nc(-c4cc(Cl)cnc4OC)n3c2n1 [Example 41, 9-(5-chloro-2-methoxypyridin-3-yl)-2-methoxy-7-methylimidazo[5,1-c]pyrido[2,3-e][1,2,4]triazine] | 54.3 nM | 291 nM |
| COc1ccc2nnc3c(C)nc(-c4cccnc4OC(C)C)n3c2n1 [Example 42, 2-methoxy-7-methyl-9-[2-(1-methylethoxy)pyridin-3-yl]imidazo[5,1-c]pyrido[2,3-e][1,2,4]triazine] | 751 nM | < 5000 nM |
| COc1ccc2nnc3c(C)nc(-c4cncc(F)c4)n3c2n1 [Example 43, 9-(5-fluoropyridin-3-yl)-2-methoxy-7-methylimidazo[5,1-c]pyrido[2,3-e][1,2,4]triazine] | 272 nM | 367 nM |
| COc1ccc2nnc3c(C)nc(-c4ccncc4)n3c2n1 [Example 44, 2-methoxy-7-methyl-9-pyridin-4-ylimidazo[5,1-c]pyrido[2,3-e][1,2,4]triazine] | 477 nM | 348 nM |
| COc1ccc2nnc3c(C)nc(-c4ccncc4Cl)n3c2n1 [Example 45, 9-(3-chloropyridin-4-yl)-2-methoxy-7-methylimidazo[5,1-c]pyrido[2,3-e][1,2,4]triazine] | 31.7 nM | 36.9 nM |
| COc1cc(-c2nc(C)c3nnc4ccc(OC)nc4n23)c(Cl)cn1 [Example 46, 9-(5-chloro-2-methoxypyridin-4-yl)-2-methoxy-7-methylimidazo[5,1-c]pyrido[2,3-e][1,2,4]triazine] | 70.1 nM | 191 nM |
| COc1ccc2nnc3c(C)nc(-c4cnccc4OC)n3c2n1 [Example 47, 2-methoxy-9-(4-methoxypyridin-3-yl)-7-methylimidazo[5,1-c]pyrido[2,3-e][1,2,4]triazine] | 69.4 nM | 178 nM |
| COc1ccc2nnc3c(C)nc(-c4ccc5nccn5c4)n3c2n1 [Example 48, 9-imidazo[1,2-a]pyridin-6-yl-2-methoxy-7-methylimidazo[5,1-c]pyrido[2,3-e][1,2,4]triazine] | 550 nM | 260 nM |
| COc1ccc2nnc3c(C)nc(-c4cc(C(C)=O)ccc4Cl)n3c2n1 [Example 49, 1-[4-chloro-3-(2-methoxy-7-methylimidazo[5,1-c]pyrido[2,3-e][1,2,4]triazin-9-yl)phenyl]ethanone] | 27.5 nM | 403 nM |
| COc1ccc2nnc3c(C)nc(-c4cccnc4C)n3c2n1 [Example 50, 2-methoxy-7-methyl-9-(2-methylpyridin-3-yl)imidazo[5,1-c]pyrido[2,3-e][1,2,4]triazine] | 15.9 nM | 126 nM |
| COc1ccc2nnc3c(C)nc(-c4cnccc4C)n3c2n1 [Example 51, 2-methoxy-7-methyl-9-(4-methylpyridin-3-yl)imidazo[5,1-c]pyrido[2,3-e][1,2,4]triazine] | 142 nM | 388 nM |
| COc1ccc2nnc3c(C)nc(-c4ccncc4OC)n3c2n1 [Example 52, 2-methoxy-9-(3-methoxypyridin-4-yl)-7-methylimidazo[5,1-c]pyrido[2,3-e][1,2,4]triazine] | 165 nM | 225 nM |
| COc1ccc2nnc3c(C)nc(-c4cccnc4F)n3c2n1 [Example 53, 9-(2-fluoropyridin-3-yl)-2-methoxy-7-methylimidazo[5,1-c]pyrido[2,3-e][1,2,4]triazine] | 29.6 nM | 147 nM |
| COc1ccc2nnc3c(C)nc(-c4sc(C)nc4C)n3c2n1 [Example 54, 9-(2,4-dimethyl-1,3-thiazol-5-yl)-2-methoxy-7-methylimidazo[5,1-c]pyrido[2,3-e][1,2,4]triazine] | 23 nM | 64.5 nM |
| COc1ccc2nnc3c(C)nc(-c4cccnc4)n3c2n1 [Example 55, 2-methoxy-7-methyl-9-pyridin-3-ylimidazo[5,1-c]pyrido[2,3-e][1,2,4]triazine] | 144 nM | 682 nM |
| COc1ccc2nnc3c(C)nc(-c4cccc(F)c4C)n3c2n1 [Example 56, 9-(3-fluoro-2-methylphenyl)-2-methoxy-7-methylimidazo[5,1-c]pyrido[2,3-e][1,2,4]triazine] | 21.3 nM | 35.6 nM |
| COc1ccc2nnc3c(C)nc(-c4ccc(F)cc4C)n3c2n1 [Example 57, 9-(4-fluoro-2-methylphenyl)-2-methoxy-7-methylimidazo[5,1-c]pyrido[2,3-e][1,2,4]triazine] | 21.2 nM | 64.4 nM |
| COc1cccc(-c2nc(C)c3nnc4ccc(OC)nc4n23)c1 [Example 58, 2-methoxy-9-(3-methoxyphenyl)-7-methylimidazo[5,1-c]pyrido[2,3-e][1,2,4]triazine] | 14.7 nM | 37.7 nM |
| COc1ccc(Cl)c(-c2nc(C)c3nnc4ccc(OC)nc4n23)c1 [Example 59, 9-(2-chloro-5-methoxyphenyl)-2-methoxy-7-methylimidazo[5,1-c]pyrido[2,3-e][1,2,4]triazine] | 2.2 nM | 40.9 nM |
| COc1ccc2nnc3c(C)nc(-c4cc(Cl)ccc4C)n3c2n1 [Example 60, 9-(5-chloro-2-methylphenyl)-2-methoxy-7-methylimidazo[5,1-c]pyrido[2,3-e][1,2,4]triazine] | 8 nM | 106 nM |
| COc1ccc2nnc3c(C)nc(-c4ccc(C)cc4Cl)n3c2n1 [Example 61, 9-(2-chloro-4-methylphenyl)-2-methoxy-7-methylimidazo[5,1-c]pyrido[2,3-e][1,2,4]triazine] | 7.54 nM | 21.6 nM |
